The values that follow come from patent publication US20250163044A1, “COMPOUNDS” (PSYLO PTY LTD, priority 2021, published 2025).

Type in all cases: cell-based
Test [1] addresses T1, 5-HT2C receptor (Homo sapiens, UniProt P28335).
T1 construct: host or cells: HEK293
T1 sequence (P28335 33-458): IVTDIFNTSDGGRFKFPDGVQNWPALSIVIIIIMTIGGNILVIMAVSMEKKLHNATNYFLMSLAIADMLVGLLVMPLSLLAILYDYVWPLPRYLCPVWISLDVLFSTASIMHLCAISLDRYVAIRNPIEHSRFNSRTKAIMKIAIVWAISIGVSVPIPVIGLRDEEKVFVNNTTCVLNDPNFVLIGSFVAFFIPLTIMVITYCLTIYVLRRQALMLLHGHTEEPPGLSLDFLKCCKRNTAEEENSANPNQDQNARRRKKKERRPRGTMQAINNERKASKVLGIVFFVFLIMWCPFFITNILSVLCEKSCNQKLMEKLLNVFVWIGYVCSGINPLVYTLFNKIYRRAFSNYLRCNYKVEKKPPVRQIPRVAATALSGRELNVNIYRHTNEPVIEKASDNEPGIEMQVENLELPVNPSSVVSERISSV
Briefly: FLIPR Ca2+ flux functional assay, agonist activity at 5-HT2C. Particulars: HEK293 cells, Ca2+ flux; for EC50: read-out: 5-HT2C EC50. The protocol:
(§1) Activity at 5-HT2A, 5-HT2B and 5-HT2C receptors was determined using a FLIPR Ca2+ flux assay at WuXi AppTec Co. Ltd. (Hong Kong) Discovery Biology Unit according to their standard protocols. Briefly, stably transfected cells expressing the receptor of interest (HEK293 for 5-HT2A and 5-HT2C; CHO-K1 for 5-HT2B) were grown and plated in a 384 well plate and incubated at 37° C. and 5% CO2 overnight. A 250 mM stock solution of probenecid in FLIPR calcium assay buffer (10 mL) was freshly prepared and combined with a fluorescent dye (Fluo-4 Direct) to give a final assay concentration of 2.5 mM. Reference compounds were 4-fold serially diluted and the screening compounds were 3-fold serially diluted in 100% DMSO for 10 points using Agilent Bravo, and 750 nL was added to a 384 well compound plate using Echo along with 30 μL assay buffer. The fluorescent dye was then added to the assay plate along with assay buffer to a final volume of 40 μL. The cell plate was incubated for 50 min at 37° C. and 5% CO2 and placed into the FLIPR Tetra along with the compound plate. 10 μL of references and compounds were then transferred from the compound plate into the cell plate and the fluorescent signal was read.

For test [2], the target named is T2, 5-HT2B receptor (Homo sapiens, UniProt P41595).
T2 construct: host or cells: CHO-K1
T2 sequence (P41595 whole entry): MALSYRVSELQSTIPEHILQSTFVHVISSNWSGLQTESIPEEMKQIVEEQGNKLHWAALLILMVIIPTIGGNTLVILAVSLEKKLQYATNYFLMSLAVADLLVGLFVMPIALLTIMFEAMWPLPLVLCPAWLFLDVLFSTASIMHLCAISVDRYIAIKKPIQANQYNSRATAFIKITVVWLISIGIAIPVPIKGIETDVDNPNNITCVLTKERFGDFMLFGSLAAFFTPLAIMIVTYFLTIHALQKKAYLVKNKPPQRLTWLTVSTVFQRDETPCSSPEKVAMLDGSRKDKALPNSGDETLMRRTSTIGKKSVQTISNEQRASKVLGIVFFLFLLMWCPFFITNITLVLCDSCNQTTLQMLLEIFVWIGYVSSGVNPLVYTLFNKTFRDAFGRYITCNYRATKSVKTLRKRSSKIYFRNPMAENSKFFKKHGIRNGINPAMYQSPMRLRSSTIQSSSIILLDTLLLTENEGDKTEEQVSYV
Put plainly: FLIPR Ca2+ flux functional assay, agonist activity at 5-HT2B. As to conditions: CHO-K1 cells, Ca2+ flux; for EC50: read-out: 5-HT2B EC50. The protocol:
as §1

Test [3] addresses T3, 5-HT2A receptor (Homo sapiens, UniProt P28223).
T3 construct: host or cells: HEK293
Briefly: FLIPR Ca2+ flux functional assay, agonist activity at 5-HT2A. Particulars: HEK293 cells, Ca2+ flux; for EC50: read-out: 5-HT2A EC50. The protocol:
as §1
A general note: Calcium assays in cells follow changes in intracellular calcium, usually with a dye or a luminescent sensor.

As usually defined, the EC50 is the concentration giving half of the maximal effect. The term Emax denotes the size of the effect at its maximum, as opposed to the concentration needed.

T3 sequence (P28223 whole entry): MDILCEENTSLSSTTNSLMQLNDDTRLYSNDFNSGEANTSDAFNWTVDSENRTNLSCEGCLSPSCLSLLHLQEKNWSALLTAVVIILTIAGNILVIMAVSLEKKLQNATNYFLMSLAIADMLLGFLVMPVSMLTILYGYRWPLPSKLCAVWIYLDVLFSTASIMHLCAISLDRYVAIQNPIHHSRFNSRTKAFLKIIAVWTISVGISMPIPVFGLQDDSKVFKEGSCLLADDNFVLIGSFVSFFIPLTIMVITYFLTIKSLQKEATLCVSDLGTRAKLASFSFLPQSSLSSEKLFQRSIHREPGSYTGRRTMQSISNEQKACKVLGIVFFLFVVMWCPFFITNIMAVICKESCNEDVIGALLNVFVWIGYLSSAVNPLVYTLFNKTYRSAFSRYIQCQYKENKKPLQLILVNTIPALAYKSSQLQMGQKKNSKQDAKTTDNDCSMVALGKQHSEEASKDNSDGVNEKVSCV

Take `CCN(CC)CCc1n[nH]c2cccc(O)c12` [Example P-43, 3-(2-(diethylamino)ethyl)-1H-indazol-4-ol]: the EC50 in test [1] is above 10000 nM; in test [2], above 10000 nM; in test [3], 2180 nM.

With `COc1ccc2[nH]cc(CCN(C(C)C)C(C)C)c2n1` [Example P-12, N-isopropyl-N-(2-(5-methoxy-1H-pyrrolo[3,2-b]pyridin-3-yl)ethyl)propan-2-amine], the Emax turned out to be 110% in test [1], 102% in test [2] and 85.7% in test [3]. Besides, the EC50 was determined as 200 nM in test [1], 22.2 nM in test [2] and 6.96 nM in test [3].

`CCN(C)CCc1c[nH]c2ncc(F)cc12` [Example P-25, N-ethyl-N-methyl-2-(5-fluoro-1H-pyrrolo[2,3-b]pyridin-3-yl)ethan-1-amine]: the Emax was found to be 21% in test [1], 8.23% in test [2] and 70.3% in test [3]. Further, the EC50 is above 10000 nM in test [1], above 10000 nM in test [2] and 109 nM in test [3].

Turning to `CCN(C)CCc1c[nH]c2nccc(OC)c12` [Example P-28, N-ethyl-2-(4-methoxy-1H-pyrrolo[2,3-b]pyridin-3-yl)-N-methylethan-1-amine], the figures for the Emax in test [1], in test [2] and in test [3] were -0.06%, 0.69% and 70.5%, respectively. The EC50 was above 10000 nM in test [1], above 10000 nM in test [2] and 782 nM in test [3].

As to `CCN(CC)CCc1c[nH]c2nccc(OC)c12` [Example P-26, N,N-diethyl-2-(4-methoxy-1H-pyrrolo[2,3-b]pyridin-3-yl)ethan-1-amine], the Emax in test [1] is 0.9%; in test [2], 3.08%; in test [3] it was 58.3%. Further, the EC50 in test [1] was above 10000 nM; in test [2], above 10000 nM; in test [3] it was 1620 nM.

`CCCN(CCC)CCc1c[nH]c2ccc(OC)nc12` [Example P-11, 2-(5-methoxy-1H-pyrrolo[3,2-b]pyridin-3-yl)-N,N-dipropylethan-1-amine]: the Emax in test [1] came to 96.3%; in test [2], 92.1%; in test [3], 99.1%. For the same compound, the EC50 amounted to 91.1 nM in test [1], 52.2 nM in test [2] and 4.17 nM in test [3].

In the case of `CCN(CC)CCc1n[nH]c2cccc(OC)c12` [Example P-42, 2-(4-methoxy-1H-indazol-3-yl)-N,N-diethylethan-1-amine], the EC50 in test [1] was 3490 nM; in test [2], above 10000 nM; in test [3], 2980 nM.

Take `Cc1ccnc2[nH]cc(CCN(C)C)c12` [Example P-30, N,N-dimethyl-2-(4-methyl-1H-pyrrolo[2,3-b]pyridin-3-yl)ethan-1-amine]: the results for the Emax in test [1], in test [2] and in test [3] were 1.04%, 0.03% and 56.6%, respectively. The values for the EC50 in test [1], in test [2] and in test [3] were above 10000 nM, above 10000 nM and 387 nM, respectively.

For the compound `CCN(C)CCc1c[nH]c2ncc(C)cc12` [Example P-23, N-ethyl-N-methyl-2-(5-methyl-1H-pyrrolo[2,3-b]pyridin-3-yl)ethan-1-amine], the Emax in test [1] is -0.04%; in test [2], 0.88%; in test [3] it was 55%. The EC50 is above 10000 nM in test [1], above 10000 nM in test [2] and 1240 nM in test [3].

On to `CN(C)CCc1n[nH]c2cccc(O)c12` [Example P-56, 3-(2-(dimethylamino)ethyl)-1H-indazol-4-ol], for which the Emax in test [1] was 63.6%; in test [2], -0.39%; in test [3], 50.5%. For the same compound, the EC50 in test [1] is 1260 nM; in test [2], above 10000 nM; in test [3], 794 nM.

Consider `CCCN(CCC)CCc1n[nH]c2ccc(OC)cc12` [Example P-49, N,N-dipropyl-2-(5-methoxy-1H-indazol-3-yl)ethan-1-amine], for which the concentration giving a half-maximal response (EC50) in test [1] was above 10000 nM; in test [2], above 10000 nM; in test [3], 1390 nM.

Turning to `CCN(CC)CCc1c[nH]c2ncc(OC)cc12` [Example P-17, 2-(5-methoxy-1H-pyrrolo[2,3-b]pyridin-3-yl)-N,N-diethylethan-1-amine], the values for the Emax in test [1], in test [2] and in test [3] were -0.53%, 0.37% and 84.7%, respectively. In addition, the EC50 in test [1] was above 10000 nM; in test [2] it was above 10000 nM; in test [3], 279 nM.

Turning to `COc1ccc2onc(CCN(C)C)c2c1` [Example P-9, 2-(5-methoxybenzo[d]isoxazol-3-yl)-N,N-dimethylethan-1-amine], the Emax in test [1] is -30.5%; in test [2], 2.53%; in test [3] it was 37.3%. Moreover, the EC50 in test [1] was above 10000 nM; in test [2] it was above 10000 nM; in test [3] it was 1020 nM.

For `CCCN(CCC)CCc1n[nH]c2cccc(OC)c12` [Example P-44, 2-(4-methoxy-1H-indazol-3-yl)-N,N-dipropylethan-1-amine], the concentration giving a half-maximal response (EC50) in test [1] was determined as 1700 nM; in test [2], 490 nM; in test [3], 259 nM.

As for `CN(C)CCc1c[nH]c2ncc(F)cc12` [Example P-24, N,N-dimethyl-2-(5-fluoro-1H-pyrrolo[2,3-b]pyridin-3-yl)ethan-1-amine], the Emax in test [1] came to 24.7%; in test [2], 6.16%; in test [3], 56.5%. Moreover, the values for the EC50 in test [1], in test [2] and in test [3] were above 10000 nM, above 10000 nM and 80.8 nM, respectively.

Consider `CN(C)CCc1n[nH]c2ccccc12` [Example P-7], for which the EC50 in test [1] was 2340 nM; in test [2] it was above 10000 nM; in test [3], above 10000 nM.

Regarding `CCCN(CCC)CCc1c[nH]c2ncc(OC)cc12` [Example P-18, 2-(5-methoxy-1H-pyrrolo[2,3-b]pyridin-3-yl)-N,N-dipropylethan-1-amine], the figures for the Emax in test [1], in test [2] and in test [3] were -0.33%, 9.35% and 89.4%, respectively. Besides, the EC50 in test [1] was above 10000 nM; in test [2], above 10000 nM; in test [3] it was 85.5 nM.

Consider `CCN(C)CCc1c[nH]c2ncc(OC)cc12` [Example P-20, N-ethyl-2-(5-methoxy-1H-pyrrolo[2,3-b]pyridin-3-yl)-N-methylethan-1-amine], for which the values for the Emax in test [1], in test [2] and in test [3] were -0.08%, 1.38% and 76.7%, respectively. Further, the EC50 in test [1] was above 10000 nM; in test [2], above 10000 nM; in test [3], 93.3 nM.
